Data as given in the NIST ThermoML archive (doi:10.1016/j.fluid.2005.09.019).

Key:
[1] = Crystal; visual observation
[2] = wn = mass fraction of the nth substance listed; details: Other PVT measurement

CCCCCCCCOC(=O)c1cccc(-c2cccc(C(=O)OCCCCCCCC)c2)c1 [dioctyl [1,1'-biphenyl]-3,3'-dicarboxylate]
Details	Normal melting temperature [°C]
[1]	29.00

CCCCCCCCOC(=O)c1cccc(-c2cccc(C(=O)OCCCCCCCC)c2)c1 [dioctyl [1,1'-biphenyl]-3,3'-dicarboxylate] + O=C=O
[2]
Details	mass density [kg/m3]
294.95 K, 21200 kPa, Gas, w1 = 0.018	883
295.55 K, 15610 kPa, Gas, w1 = 0.62	1089
296.05 K, 6100 kPa, Fluid (supercritical or subcritical phases), w1 = 0.277	750
298.55 K, 6480 kPa, Fluid (supercritical or subcritical phases), w1 = 0.277	734
302.15 K, 7070 kPa, Fluid (supercritical or subcritical phases), w1 = 0.277	701
304.15 K, 7450 kPa, Fluid (supercritical or subcritical phases), w1 = 0.277	682
305.75 K, 23790 kPa, Gas, w1 = 0.018	856
306.05 K, 16070 kPa, Gas, w1 = 0.62	1076
312.65 K, 17750 kPa, Gas, w1 = 0.62	1052
313.75 K, 126340 kPa, Gas, w1 = 0.496	1150
318.65 K, 92850 kPa, Gas, w1 = 0.496	1121
324.55 K, 104160 kPa, Gas, w1 = 0.092	1160
324.65 K, 110450 kPa, Gas, w1 = 0.286	1131
326.85 K, 147870 kPa, Gas, w1 = 0.131	1240
328.15 K, 88980 kPa, Gas, w1 = 0.092	1124
329.05 K, 27960 kPa, Gas, w1 = 0.018	804
329.05 K, 90520 kPa, Gas, w1 = 0.286	1097
329.05 K, 137580 kPa, Gas, w1 = 0.256	1150
329.15 K, 121140 kPa, Gas, w1 = 0.388	1178
329.35 K, 116110 kPa, Gas, w1 = 0.201	1141
330.85 K, 105180 kPa, Gas, w1 = 0.388	1139
330.85 K, 113860 kPa, Gas, w1 = 0.256	1125
331.25 K, 106000 kPa, Gas, w1 = 0.131	1160
332.25 K, 83070 kPa, Gas, w1 = 0.286	1083
332.65 K, 20850 kPa, Gas, w1 = 0.62	1031
333.45 K, 68350 kPa, Gas, w1 = 0.496	1075
333.65 K, 93560 kPa, Gas, w1 = 0.201	1111
340.55 K, 73300 kPa, Gas, w1 = 0.092	1062
341.95 K, 70330 kPa, Gas, w1 = 0.286	1044
344.15 K, 77780 kPa, Gas, w1 = 0.388	1077
344.35 K, 77640 kPa, Gas, w1 = 0.256	1045
345.15 K, 74290 kPa, Gas, w1 = 0.201	1048
347.45 K, 60240 kPa, Gas, w1 = 0.496	1049
348.95 K, 30510 kPa, Gas, w1 = 0.018	760
350.05 K, 73950 kPa, Gas, w1 = 0.131	1054
352.15 K, 66510 kPa, Gas, w1 = 0.092	1019
352.95 K, 62980 kPa, Gas, w1 = 0.286	1010
353.95 K, 24590 kPa, Gas, w1 = 0.62	1013
353.95 K, 69580 kPa, Gas, w1 = 0.256	1015
358.75 K, 65340 kPa, Gas, w1 = 0.201	1005
360.85 K, 67620 kPa, Gas, w1 = 0.388	876
363.25 K, 57970 kPa, Gas, w1 = 0.496	997
365.65 K, 63340 kPa, Gas, w1 = 0.092	979
365.85 K, 33480 kPa, Gas, w1 = 0.018	726
366.35 K, 66790 kPa, Gas, w1 = 0.131	1002
366.65 K, 59240 kPa, Gas, w1 = 0.286	976
369.85 K, 63030 kPa, Gas, w1 = 0.256	969
370.45 K, 27170 kPa, Gas, w1 = 0.62	997
372.25 K, 61790 kPa, Gas, w1 = 0.201	968
